PubChem BioAssay (NCI)
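Test compounds were applied to cells in 96-well plates for 48 hours at 5 doses. Abbreviation: GI50, concentration required for 50% inhibition of growth. TGI marks complete inhibition of growth.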

Tests used:
Experiment in all cases: inhibition of tumour cell growth, NCI panel, 48 h
[1] = tested on: CCRF-CEM leukemia
[2] = tested on: HT29 colon
[3] = tested on: K-562 leukemia
[4] = tested on: LOX IMVI melanoma
[5] = tested on: NCI-H23 lung
[6] = tested on: SF-295 CNS
[7] = tested on: T-47D breast
[8] = tested on: U251 CNS

Compound	GI50 [1] [µM]	TGI [1] [µM]	GI50 [2] [µM]	TGI [2] [µM]	GI50 [3] [µM]	TGI [3] [µM]	GI50 [4] [µM]	TGI [4] [µM]	GI50 [5] [µM]	TGI [5] [µM]	GI50 [6] [µM]	TGI [6] [µM]	GI50 [7] [µM]	TGI [7] [µM]	GI50 [8] [µM]	TGI [8] [µM]
CCOc1ccc(N(C)c2ccc(/C=C/C3=[N+](C)c4ccccc4C3(C)C)cc2)cc1	0.0841	0.647	0.137	1.06	0.359	10.3	0.133	0.364	0.125	1.34	0.47	3.89	0.392	2.67	0.122	1.17
CC1CCCCCC(=O)c2c(O)cc(O)cc2CC(=O)O1 (stereo unspecified)		> 100		> 100		> 100		> 100		> 100		> 100		> 100		> 100
C=C(CO)C(=O)OC1CC(=C)C2CC(O)C(C)C2C2OC(=O)C(=C)C12 (stereo unspecified)		77.7		53.9		82.2		> 100		> 100		38.8		> 100		64.2
CCC(=C(c1ccc(OCCN2CCCCC2)cc1)c1ccc(OCCN2CCCCC2)cc1)c1ccc(Cl)cc1	1.92	> 16.7	0.762	> 16.7	0.4	1.07	2.31	4.84	> 16.7	> 16.7	6.53	> 16.7	9.62	> 16.7	3.42	> 16.7
O=c1nc2n(-c3cccc(Cl)c3)c3ccc([N+](=O)[O-])cc3cc-2c(=O)[nH]1	2.09	> 25	9.06	> 25	17.1	> 25	1.93	9.52	4.94	10.6	4.92	10.9	7.82	> 25	2.63	> 25
COc1cc(/C=C/C(=O)c2cccc(-n3cc(-c4ccccc4)[nH]c3=O)c2)cc(OC)c1OC	0.64	> 100	0.662	1.85	0.502	> 100	0.489	1.67	1.43	3.29	1.9	4.41	2.19	6.9	0.63	1.94
C=CCc1cccc(C=O)c1O	4	> 100	67.9	> 100	32	> 100	17.3	> 100	> 100	> 100	> 100	> 100	10.2	> 100	6.63	> 100
O=c1[nH]c2ccccc2n1C1CCNCC1	> 100	> 100	> 100	> 100	> 100	> 100	> 100	> 100	> 100	> 100	> 100	> 100	> 100	> 100	> 100	> 100
O=[N+]([O-])c1ccc(C2=NCCO2)cc1	3.15	> 100	> 100	> 100	> 100	> 100	> 100	> 100	> 100	> 100	> 100	> 100	> 100	> 100	> 100	> 100
C/C(=C\C(=O)O[C@H]1[C@@H]2[C@H](C)CC[C@H]2[C@]2(C)O[C@@]1(C1CCCCC1)C[C@H]2OC(=O)CO)c1ccccc1	7	15.3	6.47	13	7.82	17.6	6.97	12.9	6.87	13.9	6.08	11.7	5.44	12.1	6.02	11.5
O=C1C=C(Nc2ccccc2)c2ccccc2C1=O	3.54	14.7	2.35	5.17	2.64	7.81	1.51	3.17	1.98	4.91	1.9	3.5	3.17	9.88	1.8	4.6
O=C(NCc1cn(Cc2cccc(Oc3ccccc3)c2)nn1)c1cccnc1Nc1ccc(F)cc1	> 100	> 100	5.6	> 100	> 100	> 100	61.3	> 100	52.1	> 100	5.66	47.6	21.4	> 100	7.12	> 100
Cn1cc(C2=C(c3ccsc3)C(=O)NC2=O)c2ccccc21	> 21.1	> 25	> 25	> 25	> 25	> 25	> 25	> 25	> 25	> 25	> 25	> 25	7.97	> 25	> 25	> 25
Nc1c(C(=O)Nc2cccc(Cl)c2)sc2nc3c(cc12)C(=O)CCC3	0.383	> 100	0.338	> 100	0.101	> 100	0.905	> 100	0.751	> 100	0.243		0.422	> 100	0.599	> 60.2
C[N+]1([O-])C2CCC1CC(OC(=O)C(CO)c1ccccc1)C2 (stereo unspecified)		> 100		> 100		> 100		> 100		> 100		> 100		> 100		> 100
CN(C)CCNC(=O)c1cc2c3cc(Cl)ccc3[nH]c2c2ncccc12	2.09	5.47	2.33	10.3	1.68	3.98	1.51	2.92	6.31	23.4	22.8	59.6	3.8	17.8	2.49	9.45
